From patent US12595251B2, “Amidines and amidine analogs for the treatment of bacterial infections and potentiation antibiotics” (GEORGIA STATE UNIVERSITY RESEARCH FOUNDATION, INC., priority 2018, dated 2026)
“Also recorded” adds a separate entry of the source. Structures can show the parent of a compound that is named as a salt. Where two headings read alike, the source gives them in different places.

How the values were obtained:
HEK293 cells = test: Cytotoxicity in HEK293 cells (CCK-8, 24 h); assay type: cell-based; conditions: for HEK293 cytotoxicity at 100 μM ("100 μM result in x%"): NT=not toxic
Description: (§1) H9c2 (ATCC®R-1446™) cells Were used in the studies. The H9c2 cells were maintained in DMEM (Dulbeccoa's Modified Eagle's Medium) supplemented with 10% fetal bovine serum (Mid Sci; S01520HI) and 1% penicillin-streptomycin (Sigma-Aldrich; P4333) at 37° C. with 5% CO2. The H9c2 cells were seeded in 96-well plate one day before the experiment. Different concentrations of di-amidine compounds were added into the H9c2 cells. The cells were then incubated with the compounds for 24 h at 37° C. with 5% CO2. The cell viability was tested by the CCK-8. Specifically, after 24 h incubation, 10 μL CCK-8 was added to each well. After 3 h incubation at 37° C., the absorbance at 450 nm was recorded by a plate reader. The cytoxicity in HEK293 and 3T3 cells was measured using the same procedure. Data is shown in Table 5 (NT=not toxic; --=not tested).

3T3 cells = test: Cytotoxicity in 3T3 cells (CCK-8, 24 h); assay type: cell-based; conditions: for 3T3 cytotoxicity at 100 μM ("100 μM result in x%"): NT=not toxic
Description: as §1

H9c2 cells = test: Cytotoxicity in H9c2 cells (CCK-8, 24 h); assay type: cell-based
Description: as §1

E. coli outer membrane = E. coli outer membrane integrity, lysozyme lysis assay; assay type: cell-based, Escherichia coli; conditions: lysozyme 50 μg/ml, Compound C 25 μg/ml, 10 min, OD600; dihydrochloride
Description: FIG. 20 is a graph of the E. coli outer membrane integrity measurement using the lysosomal lysis assay as described in Example 10. E. coli (OD600 measurement of about 0.5) was treated with Compound C with or without lysozyme for 10 minutes at room temperature. E. coli with impaired outer membrane caused by Compound C lead to decreased OD600 measurements. The x-axis is labeled with the compound and the y-axis is E. coli growth density determined by measuring OD600, Polymyxin B and pentamidine were used as positive controls.
The mechanism of action was also elucidated using a well-recognized lysosome assay that allows for assessment of membrane permeability. Specifically, lysozyme (about 14 KDa) breaks down bacterial cell wall and leads to bacterial lysis. However, lysozyme cannot penetrate intact Gram-negative bacterial outer membrane. With impaired Gram-negative bacterial membrane, lysozyme is able to diffuse across the disrupted membrane and enzymatically cleave peptidoglycan, which leads to bacterial lysis. […] In the absence of the sensitizer, no cell lysis was observed.

wild-type E. coli = test: Sensitization of wild-type E. coli toward antibiotics (MIC of antibiotic with/without sensitizer); assay type: cell-based, Escherichia coli; conditions: for MIC: Escherichia coli
Description: Bacteria were cultured with the antibiotic at various concentrations in the presence or absence of bacterial sensitizer for 24 hours at 37° C. Bacterial growth density was determined by measuring OD600 (absorbance measured at a wavelength of 600 nm). […]
The formula for calculating FIC is shown below: […]

[1] = Lipid A binding assay using Dansyl-PMBN displacement on E. coli; set-up: species or system Escherichia coli; conditions: 10 μM Dansyl-PMBN on E. coli, gradual addition of compound
Description: FIG. 21 is a graph describing the in vivo lipid A binding assay using Dansyl-PMBN as described in Example 11. Dansyl-PMBN (10 μM) was added to E. coli (OD600 measurement of about 0.5) and the fluorescent intensity at this time was recorded as F0. Sensitizers (Compound C, Compound E-20, and Polymyxin B) were added gradually and the fluorescent intensity was recorded 30 seconds later to determine the fluorescent intensity as a percent. The x-axis is concentration of the sensitizers measured in μM and the y-axis is the fluorescent intensity measured as a percent.
Lipid A is a key component of the outer membrane of Gram-negative bacteria and is responsible for maintaining its integrity of the outer membrane. The binding affinity of the compounds of the present invention to Lipid A was measured following literature procedures using a fluorescent conjugate of a polymyxin-B derivative (Dansyl-PMBN). Dansyl-PMBN binds to the lipid A part of LPS and leads to increased fluorescent intensity. […] When 10 μM of Dansyl-PMBN was added to E. coli stock (OD600 measurement around 0.5), the fluorescent intensity increased 10-fold.

[2] = system: NDM-1 over-expressing E. coli; test: microbe, parasite or virus in culture; assay type: cell-based, Escherichia coli
E. coli and MRSA = test: Relative ratio of E. coli and MRSA under trovafloxacin with/without Compound A-8; assay type: cell-based, Escherichia coli; Staphylococcus aureus; conditions: trovafloxacin (16 ng/ml) alone
Description: FIG. 23A is a comparison of the relative ratio of E. coli and MRSA treated with the antibiotic trovafloxacin in the absence (pie chart on the left) and in the presence (pie chart on the right) of Compound A-8 as described in Example 14. In the absence of Compound A-8, trovafloxacin preferred to inhibit E. coli and the bacterial population was 78% MRSA. However, Compound A-8 sensitizes trovafloxacin to MRSA.
As a proof of concept, the relative ratio of E. coli and MRSA (FIG. 23A) or B. subtilis and MRSA (FIG. 23 B) was measured with and without Compound A-8. […] However, when trovafloxacin (8 ng/ml) is supplied with 1.5 μg/ml of Compound A-8, MRSA inhibition was achieved and E. coli was the dominant species (89% of the bacteria population).

E. coli = test: Sensitization of E. coli to erythromycin (sensitization fold from IC90, OD600, 20 h); assay type: cell-based, Escherichia coli; conditions: general statement on amidine substitution or ring restraint
Description: E. coli bacteria were cultured in Miller's broth at 37° C. overnight prior to treatment. B. subtilis bacteria were cultured in nutrient broth at 37° C. overnight prior to treatment. […] Bacterial density was measured based on OD600.

B. subtilis = B. subtilis viability with antibiotic in absence or presence of compound (OD600, 20 h); assay type: cell-based, Bacillus subtilis; conditions: M-1 12.5 or 6 μM; A-2 6 or 12.5 μM; A-8; 20 h
Description: Bacterial viability was then determined by measuring density using OD600. […] B. subtilis was also cultured with either novobiocin or tetracycline at varying concentrations either in the absence or presence of compound M-1 (12.5 μM) for 20 hours. Bacterial viability was subsequently determined by measuring density using OD600.
Bacterial viability was then determined by measuring density using OD600.

wild type B. subtilis = test: Sensitization of B. subtilis toward antibiotics (MIC, OD600, 24 h); assay type: cell-based, Bacillus subtilis; conditions: compound at 10 μg/ml
Description: FIG. 22A is a bar graph showing that Compound M-1 sensitizes B. subtilis towards rifampicin as described in Example 13. Bacteria was cultured with rifampicin at various concentrations in the presence or absence of Compound M-1 for 24 hours at 37° C. and bacterial growth density was determined by measuring OD600. The y-axis is growth density measured in percent. The x-axis is rifampicin concentration measured in micrograms per milliliter (***: p<0.01).
Compound M-1 can sensitize Gram-positive bacteria such as B. subtilis towards traditional antibiotics. […] The sensitization fold is 32-fold for Compound M-1 and the FIC index is 0.14.

MRSA = test: Sensitization of MRSA toward antibiotics (OD600, 24 h); assay type: cell-based, Staphylococcus aureus; conditions: compound at 10 μg/ml
Description: Bacteria was cultured with rifampicin at various concentrations in the presence or absence of Compound M-1 for 24 hours at 37° C. and bacterial growth density was determined by measuring OD600. The y-axis is growth density measured in percent. The x-axis is rifampicin concentration measured in micrograms per milliliter (***: p<0.01).
Compound M-1 (2.7 μg/ml) sensitizes MRSA towards existing antibiotics such as rifampicin (32-fold) (FIG. 22B) and trovafloxacin (16-fold). Rifampicin is the first line of defense against MRSA and many MRSA stains grow resistance to rifampicin through overexpression of efflux pump and other mechanisms. Combined with Compound M-1, rifampicin can be used more effectively against MRSA.

[3] = antibiotic plus Compound C 5 μg/ml

## Cc1cc(COc2ccc(C(=N)N)cc2)cc(COc2ccc(C(=N)N)cc2)c1 [drawing 863]
HEK293 cells
  HEK293 cytotoxicity at 100 μM ("100 μM result in x%"): 100 μM result in 20%
3T3 cells
  3T3 cytotoxicity at 100 μM ("100 μM result in x%"): 100 μM result in 20%
H9c2 cells
  H9c2 CC^50: 50 µM

## N=C(N)c1ccc(OCc2ccc(COc3ccc(C(=N)N)cc3)cc2)cc1 [drawing 869]
HEK293 cells
  HEK293 cytotoxicity at 100 μM ("100 μM result in x%"): 100 μM result in 30%
3T3 cells
  3T3 cytotoxicity at 100 μM ("100 μM result in x%"): 100 result in 10%
H9c2 cells
  H9c2 CC^50: 50 µM

## Cc1cc(CCc2ccc(C(=N)N)cc2)cc(CCc2ccc(C(=N)N)cc2)c1 [drawing 876]
HEK293 cells
  HEK293 CC^50: 50 µM
3T3 cells
  3T3 CC^50: 50 µM

## N=C(N)c1ccc(COc2cc(OCc3ccc(C(=N)N)cc3)cc(C(F)(F)F)c2)cc1 [Compound C, 1,3-Bis {(4-amidino)-benzyloxy}-5-trifluoromethylbenzene dihydrochloride]
E. coli outer membrane
  Lysozyme-induced lysis of E. coli (membrane integrity): quick bacterial lysis; also recorded: more potent than pentamidine
wild-type E. coli
  Minimal concentration achieving 10-fold sensitization of E. coli toward erythromycin: 2.5 μg/ml
wild-type E. coli; Compound C 2 μg/ml
  Sensitization fold, rifampicin on E. coli: 8
wild-type E. coli; Compound C 4 μg/ml
  Sensitization fold, rifampicin on E. coli: 128
wild-type E. coli; Compound C 6 μg/ml
  Sensitization fold, rifampicin on E. coli: 1024
wild-type E. coli; Compound C 8 μg/ml
  Sensitization fold, rifampicin on E. coli: 2,048
wild-type E. coli; with Compound C 2 μg/ml
  MIC of rifampicin on E. coli: 1.25 µg/mL
wild-type E. coli; with Compound C 4 μg/ml
  MIC of rifampicin on E. coli: 0.08 µg/mL
wild-type E. coli; with Compound C 6 μg/ml
  MIC of rifampicin on E. coli: 0.01 µg/mL
wild-type E. coli; with Compound C 8 μg/ml
  MIC of rifampicin on E. coli: 0.005 µg/mL
wild-type E. coli; with Compound C 10 μg/ml
  MIC of rifampicin on E. coli: 0.0006 µg/mL
[1]
  Binding to lipid A (decrease of Dansyl-PMBN fluorescent intensity): bind to lipid A

## CCCCCc1cc(OCc2ccc(C(=N)N)cc2)cc(OCc2ccc(C(=N)N)cc2)c1 [Compound E-20, 1,3-Bis {(4-amidino)-benzyloxy}-5-(n-pentyl)benzene dihydrochloride]
[1]
  Binding to lipid A (decrease of Dansyl-PMBN fluorescent intensity): bind to lipid A

## Cc1cc(COc2ccc(C3=NCCN3)cc2)cc(COc2ccc(C3=NCCN3)cc2)c1 [drawing 864]
3T3 cells
  3T3 CC^50: 25 µM
H9c2 cells
  H9c2 CC^50: 25 µM

## N[C@@H]1[C@H]2CN(c3nc4c(cc3F)c(=O)c(C(=O)O)cn4-c3ccc(F)cc3F)C[C@@H]12 [Trovafloxacin, trovafloxacin]
wild-type E. coli; 24 h, antibiotic alone, wild-type E. coli, read-out: MIC of AB only
  MIC: 0.05 µg/mL
wild-type E. coli; antibiotic alone, wild-type E. coli, read-out: MIC of AB only
  MIC: 0.05 µg/mL
wild-type E. coli; read-out: MIC of AB with Compound C (5 μg/ml), antibiotic plus Compound C 5 μg/ml, wild-type E. coli
  MIC: 0.0015 µg/mL
wild-type E. coli; fractional inhibitory concentration, antibiotic plus Compound C 5 μg/ml, wild-type E. coli
  FIC: 0.13
[2]; Escherichia coli, antibiotic alone, read-out: MIC of AB only
  MIC: 0.025 µg/mL
[2]; MIC of antibiotic only / MIC with Compound C 5 μg/ml
  Sensitization fold: 32
[2]; [3]
  FIC: 0.13
  MIC of AB with Compound C (5 μg/ml): 0.0008 µg/mL
E. coli and MRSA
  MRSA share of the bacteria population (E. coli + MRSA): 78%

## Cc1cc(COc2ccc(C3=NCCN3)cc2)cc(COc2ccc(C3=NCCN3)cc2)c1 [Compound A-2, 2,2′-((((5-Methyl-1,3-phenylene)bis(methylene))bis(oxy))bis(4,1-phenylene))bis(4,5-dihydro-1H-imidazole) Dihydrochloride]
E. coli
  Ability to sensitize Gram-negative bacteria (while preserving ability to sensitize some Gram-positive bacteria): greatly decrease, or even abolish
B. subtilis
  B. subtilis growth inhibition, compound in combination with erythromycin vs erythromycin alone: significant bacterial growth inhibition

## Cc1cc(COc2ccc(CN)cc2)cc(COc2ccc(CN)cc2)c1 [drawing 874]
HEK293 cells
  HEK293 CC^50: 25 µM
3T3 cells
  3T3 CC^50: 25 µM

## CCCNC(=N)c1ccc(COc2cc(C)cc(OCc3ccc(C(=N)NCCC)cc3)c2)cc1 [Compound E-13, 1,3-Bis {(4-n-propylamidino)-benzyloxy}-5-methylbenzene dihydrochloride]
Wild type B. subtilis
  Sensitization effect on B. subtilis: no effect
E. coli
  Ability to sensitize Gram-negative bacteria (while preserving ability to sensitize some Gram-positive bacteria): greatly decrease, or even abolish
MRSA
  Sensitization fold, MRSA towards rifampicin: 16 fold

## Cc1cc(OCc2ccc(C(=N)N)cc2)cc(OCc2ccc(C(=N)N)cc2)c1 [drawing 877]
3T3 cells
  3T3 cytotoxicity at 100 μM ("100 μM result in x%"): 100 UM result in 10%

## N=C(N)c1ccc(OCc2cccc(COc3ccc(C(=N)N)cc3F)c2F)c(F)c1 [drawing 854]
HEK293 cells
  HEK293 CC^50: 100 µM
3T3 cells
  3T3 cytotoxicity at 100 μM ("100 μM result in x%"): 100 μM result in 30%
H9c2 cells
  H9c2 CC^50: 50 µM
